# Measured values reported in PubChem BioAssay (NCI).
#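 The compound was tested at five concentrations on cells cultured in 96-well plates, with a 48-hour exposure period. Abbreviation: GI50, concentration required for 50% inhibition of growth. TGI: total growth inhibition.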
# Experiments:
# Test in all cases: NCI anticancer screen, dose series, 48 h
# [1] = tested on: SK-OV-3 ovarian
# [2] = tested on: EKVX NSCLC
# [3] = tested on: HCT-116 colon
# [4] = tested on: HCC-2998 colon
# [5] = tested on: HT29 colon
# [6] = tested on: TK-10 renal
# [7] = tested on: OVCAR-4 ovarian
# [8] = tested on: M14 melanoma
# [9] = tested on: HOP-92 NSCLC
# [10] = tested on: IGROV1 ovarian
Structure (SMILES),TGI [1],TGI [2],TGI [3],TGI [4] [µM],TGI [5],TGI [6],TGI [7],TGI [8],GI50 [9] [µM],TGI [9] [µM],GI50 [2],GI50 [10],TGI [10],GI50 [3],GI50 [4] [µM],GI50 [5],GI50 [6],GI50 [7],GI50 [8],GI50 [1]
Clc1ccccc1/C=C/c1cscn1,> 100 µM,> 100 µM,> 100 µM,> 100,> 100 µM,> 100 µM,> 100 µM,> 100 µM,–,–,–,–,–,–,–,–,–,–,–,–
O=S1(=O)N(CCNc2nccc(-c3c(-c4cccc(O)c4)nc4sccn34)n2)CCN1Cc1ccccc1,–,> 50 µM,19.4 µM,39.8,36.4 µM,29.2 µM,> 50 µM,27.7 µM,12.9,> 50,26.8 µM,6.65 µM,43.6 µM,5.56 µM,14.2,2.57 µM,4.07 µM,13.6 µM,0.461 µM,–
CCOC(=O)CN=C1NNS(=O)(=O)c2ccccc21,> 100 µM,> 100 µM,> 100 µM,> 100,> 100 µM,> 100 µM,> 100 µM,> 100 µM,–,> 100,–,–,> 100 µM,–,–,–,–,–,–,–
O=C1NN(C2=NNC3(C(=O)N2)c2ccccc2-c2ccccc23)C(c2ccccc2)=N/C1=C/c1ccc(O)cc1,> 150 µg/mL,> 150 µg/mL,> 150 µg/mL,–,> 150 µg/mL,71.9 µg/mL,> 150 µg/mL,> 150 µg/mL,–,–,47.4 µg/mL,15 µg/mL,15 µg/mL,103 µg/mL,–,> 150 µg/mL,39.1 µg/mL,57.5 µg/mL,57.6 µg/mL,25.6 µg/mL
COc1cc(/C=C2\CCCC3=C2NC(C)=NC3c2cc(OC)c(OC)c(OC)c2)cc(OC)c1OC (stereo not given),–,–,1.76 µM,–,–,> 100 µM,> 100 µM,–,–,–,–,–,–,0.46 µM,–,–,4.33 µM,2.39 µM,–,–
NCCCCC(N)C(=O)NCCNc1ccc(NCCNC(=O)C(N)CCCCN)c2c1C(=O)c1ccccc1C2=O (stereo not given),> 100 µM,> 100 µM,> 100 µM,> 100,> 100 µM,> 100 µM,> 100 µM,> 100 µM,–,> 100,–,–,> 100 µM,–,–,–,–,–,–,–
C=CC1(C)CCC2=C(CCC3C(C)(C(=O)OC)CCCC23C)C1=O (stereo not given),34.4 µM,32.8 µM,31.1 µM,–,31.2 µM,56.4 µM,28.2 µM,38.7 µM,–,–,–,–,37.1 µM,–,–,–,–,–,–,–
O=C(N/N=C\c1cccc(O)c1)c1ccncc1,–,> 100 µM,> 100 µM,> 100,> 100 µM,> 100 µM,> 100 µM,> 100 µM,–,> 100,–,–,> 100 µM,–,–,–,–,–,–,–
Cn1c(=O)c2[nH]c(CCCCC(=O)O)nc2n(C)c1=O,–,> 100 µM,> 100 µM,> 100,> 100 µM,> 100 µM,> 100 µM,> 100 µM,–,> 100,–,–,> 100 µM,–,–,–,–,–,–,–
Cc1cc(O)c(C(C)(C)C)cc1Sc1cc(C(C)(C)C)c(O)cc1C,13.2 µM,11.6 µM,–,5.56,4.47 µM,6.22 µM,12.5 µM,–,2.49,6.17,2.93 µM,2.98 µM,12.5 µM,–,2.45,2.34 µM,2.54 µM,3.16 µM,–,3.56 µM
CCOC(=O)C(O)(NC(=O)c1ccc(F)cc1)C(F)(F)F (stereo not given),> 100 µM,> 100 µM,> 100 µM,> 100,> 100 µM,> 100 µM,> 100 µM,> 100 µM,–,> 100,–,–,> 100 µM,–,–,–,–,–,–,–
